Assay results taken from patent publication US20220249454A1, “INHIBITORS OF MONOCARBOXYLATE TRANSPORTERS FOR CANCER IMMUNOTHERAPY” (NIROGY THERAPEUTICS, INC., priority 2021, published 2022).

tested on: panel of solid and haemotological tumor cell lines (e.g., Hs578t, SiHa, MDA-MB-231); assay: MTS cell proliferation assay (cytotoxicity); assay type: cell-based; settings: Table 2 (Group 2), 72-96 hours, 10 mM lactate medium or RPMI 1640 medium, cell line not stated
Protocol: The anti-proliferation effect of MCT inhibition was investigated across a panel of solid and haemotological tumor cell lines. Cells were routinely cultured in their appropriate growth medium. On day 1, between 10,000-25,000 cells/well (e.g., Hs578t: 15,000 cells/well, SiHa: 10,000 cells/well, and MDA-MB-231: 25,000 cells/well) were plated into 96-well plates. 100 μL. of phosphate buffered saline solution was added to the external wells to prevent media evaporation. Plates were incubated in growth medium overnight at 37° C. in the presence of 5% CO2. On day 2, dry weight compound stocks were dissolved to a concentration of 10 mM in 100% DMSO. Compounds were further diluted in the assay medium; 10 mM lactate medium (without glucose, pyruvate, and glutamine) or RPMI 1640 medium (without pyruvate and glutamine) to generate a final dose range of 1 nM to 10 μM. Growth medium in the 96-well plate was replaced with the assay medium (10 mM lactate medium or RPMI medium or appropriate medium), and compounds were added to each well in the plate at different concentrations via serial dilution or pre-prepared solutions in assay medium. Plates were then incubated at 37° C. in the presence of 5% CO2 for a further 72-96 hours. On day 2-5, assay media was changed to 100 uL of DMEM/F12 and 20 μL of CellTiter 96 AQ MTS reagent was added to each well and the plate was returned to the incubator for 1-2 hours. MTS is bioreduced by NADPH or NADH produced by dehydrogenase enzymes in metabolically active cells into a coloured formazan product that is soluble in tissue culture medium. The amount of coloured formazan product is directly proportional to the number of living cells in culture. The absorbance of the plates was read on a Spectramax M5e plate reader using […] measurement wavelength. Dose response curves were plotted and IC50 values were calculated using GraphPad Prism. The IC50 value is equivalent to the concentration of compound that causes 50% inhibition of growth calculated from the compound treated signal to the vehicle treated signal.
Cytotoxicity of selected compounds is listed in Table 1, where IC50: A=<1 uM; B=1-10 uM; C=>10 uM; and NT=Not Tested.

With `CCOc1ccccc1NC(=O)N(C)c1cc2oc(=O)c(C(=O)O)cc2s1` [Compound 2.010, 2-(3-(2-ethoxyphenyl)-1-methylureido)-5-oxo-5H-thieno[3,2-b]pyran-6-carboxylic acid] as the compound, how does the IC50 read?
The IC50 was < 1 µM.

For `CN(C(=O)Nc1cccc(C(F)(F)F)c1)c1cc2oc(=O)c(C(=O)O)cc2s1` [Compound 2.011, 2-(1-methyl-3-(3-(trifluoromethyl)phenyl)ureido)-5-oxo-5H-thieno[3,2-b]pyran-6-carboxylic acid], which IC50 is on record?
Its IC50 is < 1 µM.

`CN(C(=O)Nc1ccc(C(F)(F)F)cc1)c1cc2oc(=O)c(C(=O)O)cc2s1` [Compound 2.012, 2-(1-methyl-3-(4-(trifluoromethyl)phenyl)ureido)-5-oxo-5H-thieno[3,2-b]pyran-6-carboxylic acid] was tested. Which IC50 did it give?
The IC50 was < 1 µM.

How did the IC50 turn out when `COc1ccc(OC)c(NC(=O)N(C)c2cc3oc(=O)c(C(=O)O)cc3s2)c1` [Compound 2.013, 2-(3-(2,5-dimethoxyphenyl)-1-methylureido)-5-oxo-5H-thieno[3,2-b]pyran-6-carboxylic acid] was run?
Its IC50 is < 1 µM.

Which IC50 does the source give for `COc1ccc(NC(=O)N(C)c2cc3oc(=O)c(C(=O)O)cc3s2)c(OC)c1` [Compound 2.014, 2-(3-(2,4-dimethoxyphenyl)-1-methylureido)-5-oxo-5H-thieno[3,2-b]pyran-6-carboxylic acid] here?
Its IC50 is < 1 µM.

`COc1cc(F)ccc1NC(=O)N(C)c1cc2oc(=O)c(C(=O)O)cc2s1` [Compound 2.015, 2-(3-(4-fluoro-2-methoxyphenyl)-1-methylureido)-5-oxo-5H-thieno[3,2-b]pyran-6-carboxylic acid] was tested. Which IC50 did it give?
Its IC50 is < 1 µM.

How did the IC50 turn out when `COc1cc(NC(=O)N(C)c2cc3oc(=O)c(C(=O)O)cc3s2)ccc1F` [Compound 2.016, 2-(3-(4-fluoro-3-methoxyphenyl)-1-methylureido)-5-oxo-5H-thieno[3,2-b]pyran-6-carboxylic acid] was run?
The IC50 was < 1 µM.

`CCOc1cc(NC(=O)N(C)c2cc3oc(=O)c(C(=O)O)cc3s2)ccc1F` [Compound 2.017, 2-(3-(3-ethoxy-4-fluorophenyl)-1-methylureido)-5-oxo-5H-thieno[3,2-b]pyran-6-carboxylic acid] was tested. Which IC50 did it give?
The IC50 was < 1 µM.

How did the IC50 turn out when `CN(C(=O)Nc1ccc(OC(F)(F)F)cc1)c1cc2oc(=O)c(C(=O)O)cc2s1` [Compound 2.019, 2-(1-methyl-3-(4-(trifluoromethoxy)phenyl)ureido)-5-oxo-5H-thieno[3,2-b]pyran-6-carboxylic acid] was run?
Its IC50 is < 1 µM.

Which IC50 does the source give for `CN(C(=O)N[C@H]1CC[C@H](C)CC1)c1cc2oc(=O)c(C(=O)O)cc2s1` [Compound 2.020, 2-(1-methyl-3-((1r,4r)-4-methylcyclohexyl)ureido)-5-oxo-5H-thieno[3,2-b]pyran-6-carboxylic acid] here?
Its IC50 is < 1 µM.

For `CCOc1ccc(NC(=O)N(C)c2cc3oc(=O)c(C(=O)O)cc3s2)cc1` [Compound 2.021, 2-(3-(4-ethoxyphenyl)-1-methylureido)-5-oxo-5H-thieno[3,2-b]pyran-6-carboxylic acid], which IC50 is on record?
Its IC50 is < 1 µM.

For `COc1cc(NC(=O)N(C)c2cc3oc(=O)c(C(=O)O)cc3s2)cc(OC)c1` [Compound 2.022, 2-(3-(3,5-dimethoxyphenyl)-1-methylureido)-5-oxo-5H-thieno[3,2-b]pyran-6-carboxylic acid], which IC50 is on record?
Its IC50 is < 1 µM.

How did the IC50 turn out when `CN(C(=O)Nc1ccc(O)cc1)c1cc2oc(=O)c(C(=O)O)cc2s1` [Compound 2.023, 2-(3-(4-hydroxyphenyl)-1-methylureido)-5-oxo-5H-thieno[3,2-b]pyran-6-carboxylic acid] was run?
The IC50 was < 1 µM.

With `CN(C(=O)Nc1ccccc1F)c1cc2oc(=O)c(C(=O)O)cc2s1` [Compound 2.024, 2-(3-(2-fluorophenyl)-1-methylureido)-5-oxo-5H-thieno[3,2-b]pyran-6-carboxylic acid] as the compound, how does the IC50 read?
Its IC50 is < 1 µM.

For `CN(C(=O)Nc1cccc(F)c1)c1cc2oc(=O)c(C(=O)O)cc2s1` [Compound 2.025, 2-(3-(3-fluorophenyl)-1-methylureido)-5-oxo-5H-thieno[3,2-b]pyran-6-carboxylic acid], which IC50 is on record?
The IC50 was < 1 µM.

How did the IC50 turn out when `COc1ccc(NC(=O)N(C)c2cc3oc(=O)c(C(=O)O)cc3s2)cc1C` [Compound 2.026, 2-(3-(4-methoxy-3-methylphenyl)-1-methylureido)-5-oxo-5H-thieno[3,2-b]pyran-6-carboxylic acid] was run?
Its IC50 is < 1 µM.

With `CN(C(=O)NC1CCCC1)c1cc2oc(=O)c(C(=O)O)cc2s1` [Compound 2.027, 2-(3-cyclopentyl-1-methylureido)-5-oxo-5H-thieno[3,2-b]pyran-6-carboxylic acid] as the compound, how does the IC50 read?
Its IC50 is < 1 µM.

How did the IC50 turn out when `CN(C(=O)c1ccc(-c2ccccc2)cc1)c1cc2oc(=O)c(C(=O)O)cc2s1` [Compound 2.028, 2-(N-methyl-[1,1′-biphenyl]-4-carboxamido)-5-oxo-5H-thieno[3,2-b]pyran-6-carboxylic acid] was run?
Its IC50 is < 1 µM.

With `CN(C(=O)c1ccc2cc(F)ccc2c1)c1cc2oc(=O)c(C(=O)O)cc2s1` [Compound 2.029, 2-(6-fluoro-N-methyl-2-naphthamido)-5-oxo-5H-thieno[3,2-b]pyran-6-carboxylic acid] as the compound, how does the IC50 read?
The IC50 was < 1 µM.

`CN(C(=O)c1cccc(-c2ccccc2)c1)c1cc2oc(=O)c(C(=O)O)cc2s1` [Compound 2.030, 2-(N-methyl-[1,1′-biphenyl]-3-carboxamido)-5-oxo-5H-thieno[3,2-b]pyran-6-carboxylic acid] was tested. Which IC50 did it give?
The IC50 was < 1 µM.

How did the IC50 turn out when `CN(C(=O)c1cccc(-c2ccc(F)cc2)c1)c1cc2oc(=O)c(C(=O)O)cc2s1` [Compound 2.031, 2-(4′-fluoro-N-methyl-[1,1′-biphenyl]-3-carboxamido)-5-oxo-5H-thieno[3,2-b]pyran-6-carboxylic acid] was run?
Its IC50 is < 1 µM.

For `CN(C(=O)c1ccccc1-c1ccc(F)cc1)c1cc2oc(=O)c(C(=O)O)cc2s1` [Compound 2.032, 2-(4′-fluoro-N-methyl-[1,1′-biphenyl]-2-carboxamido)-5-oxo-5H-thieno[3,2-b]pyran-6-carboxylic acid], which IC50 is on record?
Its IC50 is < 1 µM.

Which IC50 does the source give for `Cc1ccc(NC(=O)N(C)c2cc3oc(=O)c(C(=O)O)cc3s2)cc1` [Compound 2.033, 2-(1-methyl-3-(p-tolyl)ureido)-5-oxo-5H-thieno[3,2-b]pyran-6-carboxylic acid] here?
Its IC50 is < 1 µM.

Which IC50 does the source give for `CN(C(=O)Nc1cccc(Cl)c1)c1cc2oc(=O)c(C(=O)O)cc2s1` [Compound 2.034, 2-(3-(3-chlorophenyl)-1-methylureido)-5-oxo-5H-thieno[3,2-b]pyran-6-carboxylic acid] here?
The IC50 was < 1 µM.

How did the IC50 turn out when `Cc1ccccc1NC(=O)N(C)c1cc2oc(=O)c(C(=O)O)cc2s1` [Compound 2.035, 2-(1-methyl-3-(o-tolyl)ureido)-5-oxo-5H-thieno[3,2-b]pyran-6-carboxylic acid] was run?
Its IC50 is < 1 µM.

With `Cc1cccc(NC(=O)N(C)c2cc3oc(=O)c(C(=O)O)cc3s2)c1` [Compound 2.036, 2-(1-methyl-3-(m-tolyl)ureido)-5-oxo-5H-thieno[3,2-b]pyran-6-carboxylic acid] as the compound, how does the IC50 read?
The IC50 was < 1 µM.

For `CN(C(=O)Nc1ccc(F)cc1F)c1cc2oc(=O)c(C(=O)O)cc2s1` [Compound 2.037, 2-(3-(2,4-difluorophenyl)-1-methylureido)-5-oxo-5H-thieno[3,2-b]pyran-6-carboxylic acid], which IC50 is on record?
The IC50 was < 1 µM.

How did the IC50 turn out when `CN(C(=O)Nc1cccc2c1CCCC2)c1cc2oc(=O)c(C(=O)O)cc2s1` [Compound 2.038, 2-(1-methyl-3-(5,6,7,8-tetrahydronaphthalen-1-yl)ureido)-5-oxo-5H-thieno[3,2-b]pyran-6-carboxylic acid] was run?
Its IC50 is < 1 µM.
